Ten molecules from ChEMBL document CHEMBL1149943, “2-aminoalchohol immunosuppressants: Structure-activity relationships” (Bioorg Med Chem Lett, 1996) can be followed below.

Each structure is given as a SMILES string.

The species named for the experiment is Mus musculus. Nature of the experiment: Compound was tested for its effect on mouse allogenic mixed lymphocyte reaction(MLR). The experiment is classed as functional, organism-based.
The term IC50 denotes the concentration that inhibits the measured activity by half. Low readings indicate greater potency, high ones weaker potency. `CCCCCCCCc1ccc(CC[C@H](N)CO)cc1` showed a half-inhibitory concentration (IC50) of 0.427 µM.

In turn, `CCCCCCCCc1ccc(CC[C@@H](N)CO)cc1` gave an IC50 of 0.108 µM.

Turning to `CCCCCCCCc1ccc(CCC(N)CO)cc1` (stereo not given), 0.211 µM corresponded to half-maximal inhibition (IC50). This IC50 lies about 2-fold higher than the previous one.

Take `CCCCCCCCCCCCCCC(N)CO` (racemic): the IC50 was 0.0983 µM.

In turn, `CCCCCCCCCCCCCCCCCC[C@@H](N)CO` had a half-maximal inhibitory concentration (IC50) of 0.533 µM.

Take `CCCCCCCCCCCCCC[C@H](N)CO`: half-maximal inhibition (IC50) was put at 0.137 µM. This IC50 is about 3.9-fold lower than that of the molecule before.

Molecule `CCCCCCCCCCCCCCCCCCC(N)CO` (racemic) came in with a 50% inhibitory concentration (IC50) of 0.867 µM.

Regarding `CCCCCCCCCCCCCCCCCC[C@H](N)CO`, the midpoint of inhibition, the IC50, lay at 1.39 µM.

`CCCCCCCCc1ccc(CCC(N)(CO)CO)cc1` [FINGOLIMOD]: the concentration for half-maximal inhibition (IC50) is 0.0674 µM.

As for `CCCCCCCCCCCCCC[C@@H](N)CO`, the half-inhibitory concentration (IC50) was 0.0688 µM.
